Earlier results, collected in patent publication US20170119791A1, “METHODS AND COMPOSITIONS FOR DERMATOLOGICAL USE COMPRSING BETAMETHASONE AND BIOPOLYMERS” (APEX LABORATORIES PRIVATE LIMITED, priority 2015, published 2017).
Like-named read-outs stand apart in the source and are kept apart here.

Structure (SMILES)	Solubility (in acetone)	Solubility (in alcohol)	Solubility (in water)	Solubility (in benzene)	Solubility (in chloroform)	Solubility (in ether)
CCC(=O)OCC(=O)[C@@]1(OC(=O)CC)[C@@H](C)C[C@H]2[C@@H]3CCC4=CC(=O)C=C[C@]4(C)[C@@]3(F)[C@@H](O)C[C@@]21C [Betamethasone dipropionate, 9-fluoro-11β, 17,21-trihydroxy-16β-methylpregna-1,4-diene-3,20-dione 17,21-dipropionate]	freely soluble	sparingly soluble	insoluble			
CCCCC(=O)O[C@]1(C(=O)CO)[C@@H](C)C[C@H]2[C@@H]3CCC4=CC(=O)C=C[C@]4(C)[C@@]3(F)[C@@H](O)C[C@@]21C [Betamethasone valerate, 9-Fluoro-11β, 17,21-trihydroxy-16β-methylpregna-1,4-diene-3,20-dione 17-valerate]	freely soluble	soluble	practically insoluble	slightly soluble	freely soluble	slightly soluble
